Test [1] deals with baculovirus-expressed ALK (Homo sapiens, UniProt Q9UM73). In words: ALK kinase inhibition, TRF/ELISA. Conditions: read-out: ALK Potency. In kind it is biochemical. Summed up:
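Eu-PT66 anti-phosphotyrosine TRF read-out measured phosphorylation of plate-bound GST-PLC-γ (coated at 10 μg/mL). The phosphorylation was driven by 30 ng/mL ALK for 15 minutes at 37° C.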

Test [2] concerns the target baculovirus-expressed JAK2 kinase (Homo sapiens, UniProt O60674). Kind of test: biochemical. Conditions: 0.2 μM ATP; read-out: JAK2 Potency. A digest of the protocol:
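IC50 derived by variable-slope sigmoidal fit of percent inhibition against log compound concentration. Baculovirus-expressed JAK2 (15 ng/mL) phosphorylated a plate-bound biotinylated 15-mer peptide for 20 min at room temperature; detection by time-resolved fluorescence.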

Counter-ions that a name gives are not always drawn.

baculovirus-expressed ALK, sequence (Q9UM73 19-1620): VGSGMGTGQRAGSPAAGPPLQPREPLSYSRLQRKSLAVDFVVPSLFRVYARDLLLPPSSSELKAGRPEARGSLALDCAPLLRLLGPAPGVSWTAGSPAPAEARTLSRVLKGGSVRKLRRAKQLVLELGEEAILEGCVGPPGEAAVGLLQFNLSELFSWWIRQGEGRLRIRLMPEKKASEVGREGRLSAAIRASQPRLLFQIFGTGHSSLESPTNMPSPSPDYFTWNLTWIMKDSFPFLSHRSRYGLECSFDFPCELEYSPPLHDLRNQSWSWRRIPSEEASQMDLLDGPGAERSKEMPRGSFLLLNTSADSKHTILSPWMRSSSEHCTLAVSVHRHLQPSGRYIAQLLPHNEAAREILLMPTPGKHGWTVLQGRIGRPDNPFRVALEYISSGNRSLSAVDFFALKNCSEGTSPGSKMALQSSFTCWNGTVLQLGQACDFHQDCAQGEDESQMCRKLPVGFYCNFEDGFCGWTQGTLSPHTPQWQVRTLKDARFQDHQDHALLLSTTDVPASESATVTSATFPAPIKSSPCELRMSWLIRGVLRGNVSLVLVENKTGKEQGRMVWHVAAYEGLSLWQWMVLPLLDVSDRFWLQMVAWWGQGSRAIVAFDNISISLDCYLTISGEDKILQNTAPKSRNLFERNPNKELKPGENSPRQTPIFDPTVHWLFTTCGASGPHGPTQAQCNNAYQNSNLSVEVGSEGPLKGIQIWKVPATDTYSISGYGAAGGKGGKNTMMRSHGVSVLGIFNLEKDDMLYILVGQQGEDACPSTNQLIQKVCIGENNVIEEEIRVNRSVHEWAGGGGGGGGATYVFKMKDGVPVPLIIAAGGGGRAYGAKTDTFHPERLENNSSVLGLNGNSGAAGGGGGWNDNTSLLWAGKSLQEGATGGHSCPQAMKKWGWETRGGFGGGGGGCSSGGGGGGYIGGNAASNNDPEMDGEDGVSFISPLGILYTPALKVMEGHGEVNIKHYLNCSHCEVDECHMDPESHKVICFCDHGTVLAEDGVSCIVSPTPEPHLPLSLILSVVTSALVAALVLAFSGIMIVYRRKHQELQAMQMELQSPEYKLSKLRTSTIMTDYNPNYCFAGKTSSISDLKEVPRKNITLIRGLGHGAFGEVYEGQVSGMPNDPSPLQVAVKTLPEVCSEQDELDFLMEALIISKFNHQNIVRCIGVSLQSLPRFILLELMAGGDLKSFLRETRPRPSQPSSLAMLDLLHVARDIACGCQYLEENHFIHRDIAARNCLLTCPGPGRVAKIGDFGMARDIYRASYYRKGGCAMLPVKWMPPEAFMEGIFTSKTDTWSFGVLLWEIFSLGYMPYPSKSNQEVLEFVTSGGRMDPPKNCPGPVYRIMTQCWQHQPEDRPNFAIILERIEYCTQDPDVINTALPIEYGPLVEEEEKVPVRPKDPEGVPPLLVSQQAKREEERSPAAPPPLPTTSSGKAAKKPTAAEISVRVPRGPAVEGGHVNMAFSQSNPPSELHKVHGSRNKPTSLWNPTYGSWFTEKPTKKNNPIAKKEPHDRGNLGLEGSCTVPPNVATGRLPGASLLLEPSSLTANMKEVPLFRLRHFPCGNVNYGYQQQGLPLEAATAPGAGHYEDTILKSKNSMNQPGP
baculovirus-expressed JAK2 kinase, sequence (O60674 whole entry): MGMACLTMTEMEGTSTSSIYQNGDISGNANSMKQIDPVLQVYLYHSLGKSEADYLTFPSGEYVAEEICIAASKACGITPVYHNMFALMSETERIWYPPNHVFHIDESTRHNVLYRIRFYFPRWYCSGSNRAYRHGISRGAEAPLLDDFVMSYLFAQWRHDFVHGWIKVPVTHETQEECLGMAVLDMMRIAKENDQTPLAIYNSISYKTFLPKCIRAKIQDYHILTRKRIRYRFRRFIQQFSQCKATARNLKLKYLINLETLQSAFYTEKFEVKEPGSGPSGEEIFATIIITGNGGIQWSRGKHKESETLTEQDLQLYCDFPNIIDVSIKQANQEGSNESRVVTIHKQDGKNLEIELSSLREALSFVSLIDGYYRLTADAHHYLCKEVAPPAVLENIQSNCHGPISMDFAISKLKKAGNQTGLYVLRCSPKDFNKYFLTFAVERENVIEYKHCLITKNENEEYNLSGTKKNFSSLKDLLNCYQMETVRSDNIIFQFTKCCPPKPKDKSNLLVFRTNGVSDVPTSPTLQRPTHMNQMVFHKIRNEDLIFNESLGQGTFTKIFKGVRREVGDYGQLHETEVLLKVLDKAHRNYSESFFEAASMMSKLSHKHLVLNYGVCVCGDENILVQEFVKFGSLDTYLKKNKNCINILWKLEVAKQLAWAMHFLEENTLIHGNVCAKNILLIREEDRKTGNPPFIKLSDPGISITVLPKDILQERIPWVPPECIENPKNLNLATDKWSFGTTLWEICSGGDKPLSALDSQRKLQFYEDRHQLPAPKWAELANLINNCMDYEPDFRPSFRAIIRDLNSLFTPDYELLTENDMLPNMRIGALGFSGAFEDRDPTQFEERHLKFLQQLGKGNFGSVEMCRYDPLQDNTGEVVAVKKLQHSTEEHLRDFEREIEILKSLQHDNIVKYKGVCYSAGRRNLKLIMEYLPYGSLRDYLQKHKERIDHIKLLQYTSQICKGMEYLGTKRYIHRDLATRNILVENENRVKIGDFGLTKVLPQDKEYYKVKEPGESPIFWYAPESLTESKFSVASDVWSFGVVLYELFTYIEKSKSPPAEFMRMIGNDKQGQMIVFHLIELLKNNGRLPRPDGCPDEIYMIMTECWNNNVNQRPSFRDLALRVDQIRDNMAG

On to `NC(=O)[C@@H]1[C@H](Nc2c(Cl)cnc3[nH]c(-c4ccnc(N5CCOCC5)c4)nc23)[C@H]2C=C[C@@H]1C2` [Compound CXXVI, (1S,2S,3R,4R)-3-[6-Chloro-2-(2-morpholin-4-yl-pyridin-4-yl)-3H-imidazo[4,5-b]pyridin-7-ylamino]-bicyclo[2.2.1]hept-5-ene-2-carboxylic acid amide], for which the IC50 is 100 to 1000 nM in test [1] and less than 100 nM in test [2].

`NC(=O)[C@@H]1[C@H](Nc2c(Br)cnc3[nH]c(-c4sc(N5CCCC5)nc4Cl)nc23)[C@H]2C=C[C@@H]1C2` [Compound CLXVII, (1S,2S,3R,4R)-3-[6-Bromo-2-(4-chloro-2-pyrrolidin-1-yl-thiazol-5-yl)-3H-imidazo[4,5-b]pyridin-7-ylamino]-bicyclo[2.2.1]hept-5-ene-2-carboxylic acid amide]: the IC50 in test [1] and in test [2] was less than 100 nM throughout.

Turning to `NC(=O)[C@@H]1[C@H](Nc2c(Cl)cnc3[nH]c(-c4ccc(CN5CCOCC5)cc4)nc23)[C@H]2C=C[C@@H]1C2` [Compound III, (1S,2S,3R,4R)-3-[6-Chloro-2-(4-morpholin-4-ylmethyl-phenyl)-3H-imidazo[4,5-b]pyridine-7-ylamino]-bicyclo[2.2.1]hept-5-ene-2-carboxylic acid amide-trifluoroacetate salt], the IC50 in test [1] and in test [2] was less than 100 nM each time.

Turning to `CC(O)CN1CCN(C(=O)COc2cccc(-c3nc4c(N[C@H]5[C@@H](C(N)=O)[C@@H]6C=C[C@H]5C6)c(Cl)cnc4[nH]3)c2)CC1` (stereo partly drawn) [Compound CCXLI, (1S,2S,3R,4R)-3-(6-chloro-2-(3-(2-(4-(2-hydroxypropyl)piperazin-1-yl)-2-oxoethoxy)phenyl)-3H-imidazo[4,5-b]pyridin-7-ylamino)bicyclo[2.2.1]hept-5-ene-2-carboxamide], the results for the IC50 in test [1] and in test [2] were 100 to 1000 nM and less than 100 nM, respectively.

As to `NC(=O)[C@@H]1[C@H](Nc2c(Br)cnc3[nH]c(-c4ccc(Cl)cc4)nc23)[C@H]2C=C[C@@H]1C2` [Compound CXLIII, (1S,2S,3R,4R)-3-[6-Bromo-2-(4-chloro-phenyl)-3H-imidazo[4,5-b]pyridin-7-ylamino]-bicyclo[2.2.1]hept-5-ene-2-carboxylic acid amide], the IC50 is 100 to 1000 nM in test [1] and less than 100 nM in test [2].

As to `NC(=O)[C@@H]1[C@H](Nc2c(Cl)cnc3[nH]c(-c4sc(N5CCCC5)nc4Cl)nc23)[C@H]2C=C[C@@H]1C2` [Compound CLXVI, (1S,2S,3R,4R)-3-[6-Chloro-2-(4-chloro-2-pyrrolidin-1-yl-thiazol-5-yl)-3H-imidazo[4,5-b]pyridin-7-ylamino]-bicyclo[2.2.1]hept-5-ene-2-carboxylic acid amide], the IC50 in test [1] and in test [2] was less than 100 nM throughout.

As to `COc1cc(C2CCN(C[C@H](C)O)CC2)ccc1-c1nc2c(N[C@H]3[C@@H](C(N)=O)[C@@H]4C=C[C@H]3C4)c(Cl)cnc2[nH]1` [Compound XLV, (1S,2S,3R,4R)-3-(6-Chloro-2-{4-[1-((S)-2-hydroxypropyl)-piperidin-4-yl]-2-methoxyphenyl}-3H-imidazo[4,5-b]pyridine-7-ylamino)-bicyclo[2.2.1]hept-5-ene-2-carboxylic acid amide], the IC50 in test [1] and in test [2] was less than 100 nM in each case.

`NC(=O)[C@@H]1[C@H](Nc2c(Cl)cnc3[nH]c(-c4ccc(C(=O)N5CCNCC5)cc4)nc23)[C@H]2C=C[C@@H]1C2` [Compound CCXX, (1S,2S,3R,4R)-3-(6-chloro-2-(4-(piperazine-1-carbonyl)phenyl)-3H-imidazo[4,5-b]pyridin-7-ylamino)bicyclo[2.2.1]hept-5-ene-2-carboxamide]: the IC50 in test [1] and in test [2] was less than 100 nM throughout.

Consider `COc1cc(C2=CCN(C[C@H](C)O)CC2)ccc1-c1nc2c(N[C@H]3[C@@H](C(N)=O)[C@@H]4C=C[C@H]3C4)c(Cl)cnc2[nH]1` [Compound XLVIII, (1S,2S,3R,4R)-3-(6-Chloro-2-[4-[1((S)-2-hydroxypropyl)-1,2,3,6-tetrahydro-pyridin-4-yl]-2-methoxyphenyl]-3H-imidazo[4,5-b]pyridine-7-ylamino)-bicyclo[2.2.1]hept-5-ene-2-carboxylic acid amide], for which the IC50 in test [1] and in test [2] was less than 100 nM throughout.

`Cc1nn(C)c(N2CCOCC2)c1-c1nc2c(N[C@H]3[C@@H](C(N)=O)[C@@H]4C=C[C@H]3C4)c(Cl)cnc2[nH]1` [Compound CXXII, (1S,2S,3R,4R)-3-[6-Chloro-2-(1,3-dimethyl-5-morpholin-4-yl-1H-pyrazol-4-yl)-3H-imidazo[4,5-b]pyridin-7-ylamino]-bicyclo[2.2.1]hept-5-ene-2-carboxylic acid amide]: the IC50 in test [1] and in test [2] was 1000 to 10000 nM in each case.

On to `CN(C)c1nc(Cl)c(-c2nc3c(N[C@H]4[C@@H](C(N)=O)[C@@H]5C=C[C@H]4C5)c(Cl)cnc3[nH]2)s1` [Compound CLIV, (1S,2S,3R,4R)-3-[6-Chloro-2-(4-chloro-2-dimethylamino-thiazol-5-yl)-3H-imidazo[4,5-b]pyridin-7-ylamino]-bicyclo[2.2.1]hept-5-ene-2-carboxylic acid amide], for which the IC50 in test [1] and in test [2] was less than 100 nM in each case.

Consider `CN1CCN(C(=O)COc2ccc(-c3nc4c(N[C@H]5[C@@H](C(N)=O)[C@@H]6C=C[C@H]5C6)c(Cl)cnc4[nH]3)cc2)CC1` [Compound CCXLIV, (1S,2S,3R,4R)-3-(6-chloro-2-(4-(2-(4-methylpiperazin-1-yl)-2-oxoethoxy)phenyl)-3H-imidazo[4,5-b]pyridin-7-ylamino)bicyclo[2.2.1]hept-5-ene-2-carboxamide], for which the IC50 in test [1] and in test [2] was less than 100 nM each time.

Regarding `NC(=O)[C@@H]1[C@H](Nc2c(Cl)cnc3[nH]c(-c4ccccc4Cl)nc23)[C@H]2C=C[C@@H]1C2` [Compound CXLVIII, (1S,2S,3R,4R)-3-[6-Chloro-2-(2-chloro-phenyl)-3H-imidazo[4,5-b]pyridin-7-ylamino]-bicyclo[2.2.1]hept-5-ene-2-carboxylic acid amide], the results for the IC50 in test [1] and in test [2] were 100 to 1000 nM and less than 100 nM, respectively.

As for `NC(=O)[C@@H]1[C@H](Nc2c(Cl)cnc3[nH]c(-c4ccccc4F)nc23)[C@H]2C=C[C@@H]1C2` [Compound CXXVII, (1S,2S,3R,4R)-3-[6-Chloro-2-(2-fluoro-phenyl)-3H-imidazo[4,5-b]pyridin-7-ylamino]-bicyclo[2.2.1]hept-5-ene-2-carboxylic acid amide], the IC50 is 100 to 1000 nM in test [1] and less than 100 nM in test [2].

On to `NC(=O)[C@@H]1[C@H](Nc2c(Br)cnc3[nH]c(-c4ccc(F)cc4)nc23)[C@H]2C=C[C@@H]1C2` [Compound CXXXIII, (1S,2S,3R,4R)-3-[6-Bromo-2-(4-fluoro-phenyl)-3H-imidazo[4,5-b]pyridin-7-ylamino]-bicyclo[2.2.1]hept-5-ene-2-carboxylic acid amide], for which the IC50 in test [1] was 100 to 1000 nM; in test [2], less than 100 nM.

`CC(=O)N1CCN(Cc2ccc(-c3nc4c(N[C@H]5[C@@H](C(N)=O)[C@@H]6C=C[C@H]5C6)c(Cl)cnc4[nH]3)cc2)CC1` [Compound CLVII, (1S,2S,3R,4R)-3-{2-[4-(4-Acetyl-piperazin-1-ylmethyl)-phenyl]-6-chloro-3H-imidazo[4,5-b]pyridin-7-ylamino}-bicyclo[2.2.1]hept-5-ene-2-carboxylic acid amide]: the IC50 in test [1] and in test [2] was less than 100 nM in each case.

The values above are taken from patent publication US9238656B2, “Imidazo[4,5-b]pyridine derivatives as ALK and JAK modulators for the treatment of proliferative disorders” (priority 2012, dated 2016).
